Data on one sequence can be found in patent US12110316B2, “Cleavable activators of CXCR3 and methods of use” (University of Pittsburgh—Of the Commonwealth System of …, priority 2018, dated 2024).

In the test the test system is choroidal neovascularization (CNV). Briefly: Laser-induced choroidal neovascularization (CNV) mouse model. The note with it: female C57BL/6J mice; 1 μg (FIG. 1A) or 3 μg (FIG. 1B) peptide injected in 1 μl in one eye immediately after laser; scramble peptide in contralateral eye; measured seven days after laser. It is filed as in vivo. Here is the method:
Since the histidine to serine substitution is a non-conserved amino acid change, experiments were performed to confirm that the engineered peptide retained the ability to block angiogenesis and fibrosis in a mouse model of choroidal neovascularization (CNV).
Mouse CNV was induced by laser photocoagulation-induced rupture of Bruch's membrane as previously described. Briefly, 7- to 8-week-old female C57BL/6J mice were anesthetized with ketamine hydrochloride (100 mg/kg body weight), and pupils were dilated with 1% tropicamide. Three burns of 532-nm diode laser photocoagulation (spot size, […]; duration, 0.1 sec; power, 120 mW) were delivered to each retina with the slit lamp delivery system of an OcuLight GL diode laser (Iridex, Mountain View, CA), using a coverslip as a contact lens to view the retina. Burns were performed at the 9, 12, and 3 o'clock positions of the posterior pole of the retina. […]
Immediately after laser treatment, mice were injected with either 1 μg (FIG. 1A) or 3 μg (FIG. 1B) of Peptide 110 (SEQ ID NO: 2), or one of three positive control peptides (Peptide 102, Peptide 105 or Peptide 107), in a volume of 1 μl in one eye and the contralateral eyes were injected with scramble peptide as control. […] After three washes with PBST, choroids were mounted on glass slides and were examined by fluorescence microscopy. […]

For the sequence “PESKAIKNLLKAVHKEMSKRSP [Peptide 110, modified fragment of human CXCL10 with a cathepsin G and neutrophil elastase cleavage site]”, the “choroidal neovascularization (total area of choroidal NV at each rupture site); anti-angiogenic activity” value was “significant reduction”.
